{"source": "paper PMC11845477", "about": "“Exploring the principles behind antibiotics with limited resistance” (Nature Communications, 2025)", "system": "P. aeruginosa ATCC BAA-3107 (SEN) and P. aeruginosa LESB58 (MDR)", "assay": "Adaptive laboratory evolution (ALE), relative MIC of evolved lines", "assay_type": "cell-based, Pseudomonas aeruginosa", "settings": "for Relative MIC (log10): PA-SEN (Pseudomonas aeruginosa ATCC BAA 3107)", "text": "Using the same set of bacterial strains, we initiated adaptive laboratory evolution with the aim to maximize the level of antibiotic resistance in the populations achieved during a longer, but fixed time period.\nAn established protocol for adaptive laboratory evolution[46],[73] was followed to propagate populations with the highest resistance levels. Starting with an antibiotic concentration that caused approximately 50% growth inhibition, ten parallel populations for each antibiotic-ancestor strain combination were grown for 72 hours at 37 °C with continuous shaking (300 RPM). MHB broth medium was used unless stated otherwise. After each incubation, 20 µl of each culture was transferred to four new wells containing fresh medium with increasing antibiotic concentrations (0.5×, 1×, 1.5×, and 2.5× the previous concentration) in a chessboard layout to monitor potential cross-contamination. Growth was monitored by measuring OD600 using a Biotek Synergy 2 microplate reader, and only populations grown in the highest drug concentration with an OD600 > 0.2 were transferred further.\nA robotic liquid handling system was used to automatically prepare a 11 to 16-step serial dilution in 384-well microtiter plates (Greiner). A final concentration of 5 × 10^5 bacterial cells per mL were inoculated into each well containing 60 µL MHB medium. Bacterial cultures were incubated at 37 °C with continuous shaking (Infors shaker, 900 rpm with 3 mm throw) for 18 hours (2 replicates from each). Cell growth was monitored by measuring the optical density (OD600 values, using Biotek Synergy microplate reader). MIC was defined as the antibiotic concentration of complete growth inhibition (i.e., OD600 < 0.05). Relative MIC was calculated as follows:1 relativeMIC=MICevolved/MICancestor […]\nSupplementary Figure 4. Resistance levels following adaptive laboratory evolution across bacterial strains. The level of resistance was measured as the fold change in relative MIC between evolved and ancestral strains after ~60 days of adaptive laboratory evolution. Data are grouped by bacterial strain (A. baumannii (AB), E. coli (EC), K. pneumoniae (KP), and P. aeruginosa (PA)) and categorized as either multidrug-resistant (MDR) or sensitive (SEN). Each data point represents a laboratory evolved line, and boxplots show the median, first and third quartiles, with whiskers indicating the 5th and 95th percentiles.\nStatistical analysis was performed using two-sided Dunn’s post-hoc test with Benjamini-Hochberg correction for multiple comparisons (****/ ***/ **/ * indicates p < 0.0001/ 0.001/ 0.01/ 0.05). For detailed information on antibiotic and bacterial species, see Supplementary Table 1. For mode of action groups, refer to Table 1. Source data are provided as a Source Data file.", "key": {"[1]": {"settings": "PA-SEN (ATCC BAA 3107), evolved line 2"}, "[2]": {"settings": "PA-SEN (ATCC BAA 3107), evolved line 3"}, "[3]": {"settings": "PA-SEN (ATCC BAA 3107), evolved line 4"}, "[4]": {"settings": "PA-SEN (ATCC BAA 3107), evolved line 6"}, "[5]": {"settings": "PA-SEN (ATCC BAA 3107), evolved line 7"}, "[6]": {"settings": "PA-SEN (ATCC BAA 3107), evolved line 8"}, "[7]": {"settings": "PA-SEN (ATCC BAA 3107), evolved line 9"}, "[8]": {"settings": "PA-SEN (ATCC BAA 3107), evolved line 10"}, "[9]": {"settings": "PA-SEN ATCC BAA 3107, evolved line 1"}}, "data": [{"molecule": "C[C@H]1c2cccc(O)c2C(=O)C2=C(O)[C@]3(O)C(=O)C(C(N)=O)=C(O)[C@@H](N(C)C)[C@@H]3[C@@H](O)[C@@H]21", "note": "[Doxycycline]", "values": [{"measurement": "Relative MIC", "setting": "PA-SEN (ATCC BAA 3107), evolved line 1, MIC of evolved line / MIC of ancestor", "value": 64}, {"measurement": "MIC of evolved line", "setting": "[1]", "value": 256, "unit": "µg/mL"}, {"measurement": "Relative MIC", "setting": "PA-SEN (ATCC BAA 3107), evolved line 2, MIC of evolved line / MIC of ancestor", "value": 64}, {"measurement": "MIC of evolved line", "setting": "[2]", "value": 256, "unit": "µg/mL"}, {"measurement": "Relative MIC", "setting": "PA-SEN (ATCC BAA 3107), evolved line 3, MIC of evolved line / MIC of ancestor", "value": 64}, {"measurement": "MIC of evolved line", "setting": "[3]", "value": 256, "unit": "µg/mL"}, {"measurement": "Relative MIC", "setting": "PA-SEN (ATCC BAA 3107), evolved line 4, MIC of evolved line / MIC of ancestor", "value": 64}, {"measurement": "MIC of evolved line", "setting": "PA-SEN (ATCC BAA 3107), evolved line 5", "value": 256, "unit": "µg/mL"}, {"measurement": "Relative MIC", "setting": "PA-SEN (ATCC BAA 3107), evolved line 5, MIC of evolved line / MIC of ancestor", "value": 64}, {"measurement": "MIC of evolved line", "setting": "[4]", "value": 256, "unit": "µg/mL"}, {"measurement": "Relative MIC", "setting": "PA-SEN (ATCC BAA 3107), evolved line 6, MIC of evolved line / MIC of ancestor", "value": 64}, {"measurement": "MIC of evolved line", "setting": "[5]", "value": 256, "unit": "µg/mL"}, {"measurement": "Relative MIC", "setting": "PA-SEN (ATCC BAA 3107), evolved line 7, MIC of evolved line / MIC of ancestor", "value": 64}, {"measurement": "MIC of evolved line", "setting": "[6]", "value": 256, "unit": "µg/mL"}, {"measurement": "Relative MIC", "setting": "PA-SEN (ATCC BAA 3107), evolved line 8, MIC of evolved line / MIC of ancestor", "value": 64}, {"measurement": "MIC of evolved line", "setting": "[7]", "value": 256, "unit": "µg/mL"}, {"measurement": "Relative MIC", "setting": "PA-SEN (ATCC BAA 3107), evolved line 9, MIC of evolved line / MIC of ancestor", "value": 64}, {"measurement": "MIC of evolved line", "setting": "[8]", "value": 256, "unit": "µg/mL"}, {"measurement": "Relative MIC", "setting": "PA-SEN (ATCC BAA 3107), evolved line 10, MIC of evolved line / MIC of ancestor", "value": 64}, {"measurement": "Relative MIC (log10)", "setting": "evolved line 1 adapted to the named antibiotic", "value": 1.806}, {"measurement": "Relative MIC (log10)", "setting": "evolved line 3 adapted to the named antibiotic", "value": 1.806}, {"measurement": "Relative MIC (log10)", "setting": "evolved line 5 adapted to the named antibiotic", "value": 1.806}, {"measurement": "Relative MIC (log10)", "setting": "evolved line 7 adapted to the named antibiotic", "value": 1.806}, {"measurement": "Relative MIC (log10)", "setting": "evolved line 9 adapted to the named antibiotic", "value": 1.806}, {"measurement": "MIC of evolved line", "setting": "[9]", "value": 256, "unit": "µg/mL"}, {"measurement": "Relative MIC", "setting": "Pseudomonas aeruginosa ATCC BAA 3107 (PA-SEN), evolved line 1", "value": 64}, {"measurement": "Relative MIC", "setting": "Pseudomonas aeruginosa ATCC BAA 3107 (PA-SEN), evolved line 2", "value": 64}, {"measurement": "Relative MIC", "setting": "Pseudomonas aeruginosa ATCC BAA 3107 (PA-SEN), evolved line 3", "value": 64}, {"measurement": "Relative MIC", "setting": "Pseudomonas aeruginosa ATCC BAA 3107 (PA-SEN), evolved line 4", "value": 64}, {"measurement": "Relative MIC", "setting": "Pseudomonas aeruginosa ATCC BAA 3107 (PA-SEN), evolved line 5", "value": 64}, {"measurement": "Relative MIC", "setting": "Pseudomonas aeruginosa ATCC BAA 3107 (PA-SEN), evolved line 6", "value": 64}, {"measurement": "Relative MIC", "setting": "Pseudomonas aeruginosa ATCC BAA 3107 (PA-SEN), evolved line 7", "value": 64}, {"measurement": "Relative MIC", "setting": "Pseudomonas aeruginosa ATCC BAA 3107 (PA-SEN), evolved line 8", "value": 64}, {"measurement": "Relative MIC", "setting": "Pseudomonas aeruginosa ATCC BAA 3107 (PA-SEN), evolved line 9", "value": 64}, {"measurement": "Relative MIC", "setting": "Pseudomonas aeruginosa ATCC BAA 3107 (PA-SEN), evolved line 10", "value": 64}]}, {"molecule": "COc1c(N2C[C@@H]3CCCN[C@@H]3C2)c(F)cc2c(=O)c(C(=O)O)cn(C3CC3)c12", "note": "[Moxifloxacin]", "values": [{"measurement": "MIC of evolved line", "setting": "[1]", "value": 256, "unit": "µg/mL"}, {"measurement": "MIC of evolved line", "setting": "[2]", "value": 512, "unit": "µg/mL"}, {"measurement": "MIC of evolved line", "setting": "[3]", "value": 128, "unit": "µg/mL"}, {"measurement": "MIC of evolved line", "setting": "[4]", "value": 512, "unit": "µg/mL"}, {"measurement": "MIC of evolved line", "setting": "[5]", "value": 256, "unit": "µg/mL"}, {"measurement": "MIC of evolved line", "setting": "[6]", "value": 512, "unit": "µg/mL"}, {"measurement": "MIC of evolved line", "setting": "[7]", "value": 256, "unit": "µg/mL"}, {"measurement": "MIC of evolved line", "setting": "[8]", "value": 128, "unit": "µg/mL"}, {"measurement": "MIC of evolved line", "setting": "[9]", "value": 512, "unit": "µg/mL"}]}, {"molecule": "C[C@@H](O)[C@H]1C(=O)N2C(C(=O)O)=C(S[C@@H]3CN[C@H](C(=O)N(C)C)C3)[C@H](C)[C@H]12", "note": "[Meropenem]", "values": [{"measurement": "MIC of evolved line", "setting": "PA-MDR, Pseudomonas aeruginosa LESB 58, evolved line 9", "value": 256, "unit": "µg/mL"}, {"measurement": "MIC of evolved line", "setting": "PA-MDR, Pseudomonas aeruginosa LESB 58, evolved line 10", "value": 32, "unit": "µg/mL"}, {"measurement": "MIC of evolved line", "setting": "PA-SEN, Pseudomonas aeruginosa ATCC BAA 3107, evolved line 1", "value": 16, "unit": "µg/mL"}, {"measurement": "MIC of evolved line", "setting": "PA-SEN, Pseudomonas aeruginosa ATCC BAA 3107, evolved line 2", "value": 64, "unit": "µg/mL"}, {"measurement": "MIC of evolved line", "setting": "PA-SEN, Pseudomonas aeruginosa ATCC BAA 3107, evolved line 4", "value": 64, "unit": "µg/mL"}, {"measurement": "MIC of evolved line", "setting": "PA-SEN, Pseudomonas aeruginosa ATCC BAA 3107, evolved line 6", "value": 64, "unit": "µg/mL"}, {"measurement": "MIC of evolved line", "setting": "PA-SEN, Pseudomonas aeruginosa ATCC BAA 3107, evolved line 8", "value": 32, "unit": "µg/mL"}, {"measurement": "MIC of evolved line", "setting": "PA-SEN, Pseudomonas aeruginosa ATCC BAA 3107, evolved line 10", "value": 64, "unit": "µg/mL"}]}, {"molecule": "polymyxin-B", "values": [{"measurement": "MIC of evolved line", "setting": "PA-MDR (P. aeruginosa LESB 58), evolved line 4 of the given antibiotic", "value": 4, "unit": "µg/mL"}, {"measurement": "MIC of evolved line", "setting": "PA-MDR (P. aeruginosa LESB 58), evolved line 5 of the given antibiotic", "value": 4, "unit": "µg/mL"}, {"measurement": "MIC of evolved line", "setting": "PA-MDR (P. aeruginosa LESB 58), evolved line 7 of the given antibiotic", "value": 32, "unit": "µg/mL"}, {"measurement": "MIC of evolved line", "setting": "PA-MDR (P. aeruginosa LESB 58), evolved line 8 of the given antibiotic", "value": 8, "unit": "µg/mL"}, {"measurement": "MIC of evolved line", "setting": "PA-MDR (P. aeruginosa LESB 58), evolved line 10 of the given antibiotic", "value": 16, "unit": "µg/mL"}, {"measurement": "MIC of evolved line", "setting": "PA-MDR LESB 58, evolved line 1", "value": 64, "unit": "µg/mL"}, {"measurement": "MIC of evolved line", "setting": "PA-MDR LESB 58, evolved line 2", "value": 256, "unit": "µg/mL"}, {"measurement": "MIC of evolved line", "setting": "PA-MDR LESB 58, evolved line 3", "value": 16, "unit": "µg/mL"}, {"measurement": "MIC of evolved line", "setting": "PA-SEN (P. aeruginosa ATCC BAA 3107), evolved line 1 of the given antibiotic", "value": 32, "unit": "µg/mL"}, {"measurement": "MIC of evolved line", "setting": "PA-SEN (P. aeruginosa ATCC BAA 3107), evolved line 4 of the given antibiotic", "value": 32, "unit": "µg/mL"}, {"measurement": "MIC of evolved line", "setting": "PA-SEN (P. aeruginosa ATCC BAA 3107), evolved line 5 of the given antibiotic", "value": 32, "unit": "µg/mL"}, {"measurement": "MIC of evolved line", "setting": "PA-SEN (P. aeruginosa ATCC BAA 3107), evolved line 6 of the given antibiotic", "value": 4, "unit": "µg/mL"}, {"measurement": "MIC of evolved line", "setting": "PA-SEN (P. aeruginosa ATCC BAA 3107), evolved line 7 of the given antibiotic", "value": 16, "unit": "µg/mL"}, {"measurement": "MIC of evolved line", "setting": "PA-SEN (P. aeruginosa ATCC BAA 3107), evolved line 8 of the given antibiotic", "value": 16, "unit": "µg/mL"}, {"measurement": "MIC of evolved line", "setting": "PA-SEN (P. aeruginosa ATCC BAA 3107), evolved line 9 of the given antibiotic", "value": 4, "unit": "µg/mL"}, {"measurement": "MIC of evolved line", "setting": "PA-SEN (P. aeruginosa ATCC BAA 3107), evolved line 10 of the given antibiotic", "value": 4, "unit": "µg/mL"}]}]}
